Test results taken from patent publication US20240228572A1 (i2o Therapeutics, Inc., priority 2020, published 2024).
*1 amine or outer side, *2 acyl side, *3 side chain or, on linkers, in order; H or OH if unused. Where a SMILES comes first, the peptide text is derived from it. Bridges are numbered along the chain shown (N, C = ends). Side-chain parts run from the residue outwards. [ ]: non-standard residue; d: D form. The star is where a group is joined. C20 diacid = O=C(O)CCCCCCCCCCCCCCCCCCC(=O)*; γGlu = O=C(O)[C@H](CCC(=O)[*:2])N[*:1]; AEEA = NCCOCCOCC(=O)O; Aib = CC(C)(N)C(=O)O

What was measured:
[1] = target: T1, human Glucagon receptor (GCGR) (Homo sapiens, UniProt P47871); assay: cAMP accumulation assay, CHO-K1 cells expressing human GCGR; type: cell-based; conditions: mean pEC50, Table 10
T1 construct: A cDNA fragment encoding the full-length open reading frame of the human GCGR; expressed in transfected cells; host or cells: CHO-K1, pcDNA3.1+, Lipofectamine 2000
From the text: In the presence of the non-specific cAMP/cGMP phosphodiesterase inhibitor, 3-isobutyl-1-methylxanthine (IBMX), accumulating cAMP can be measured in vitro using common detection methods. Thus, it is possible to estimate an in vitro potency (pEC50) for peptides activating each of these receptors using fit dose-response curves for cAMP accumulation.
A cDNA fragment encoding the full-length open reading frame of the cynomolgus monkey GLP-1R (Genebank accession #XM_028847603 was cloned into pcDNA3.1+ for expression in CHO-K1 cells. A cDNA fragment encoding the full-length open reading frame of the human GCGR (Genebank accession #NM_000160 was cloned into pcDNA3.1+ for expression in CHO-K1 cells. A cDNA fragment encoding the full-length open reading frame of the rat GCGR (Genebank accession #NM_12091 was cloned into pcDNA3.1+ for expression in CHO-K1 cells. A cDNA fragment encoding the full-length open reading frame of the cynomolgus monkey GCGR (Genebank accession #XM_005585255 was cloned into pcDNA3.1+ for expression in CHO-K1 cells.
On day 1, CHO-K1 cells were plated at 1.5 million cells per T75 flask in 90% F12-K media supplemented with 10% FBS. On day 3 cells were transfected with 40 mcg of each expression plasmid using Lipofectamine 2000 transfection reagent. On day 5, cells were dispensed at 1000 cells per well in white 384-well OptiPlates in 5 mcL of assay buffer consisting of 1×HBSS, 5 mM HEPES, 0.5 mM IBMX, and 0.1% casein.
Peptides were serially diluted 4-fold in assay buffer to final concentrations ranging from 1×10^−9 M to 9.5×10^−16 M. Two assay controls consisting of 50 mcM forskolin (cAMP system maximum) or assay buffer only (cAMP system minimum) were also prepared. Five microliters of each peptide-concentration, or assay control, was added to triplicate wells and incubated for thirty minutes at room temperature. During this incubation step a 4× europium labelled cAMP tracer solution and a 4× Ulight®-anti-cAMP solution (consisting of an anti-cAMP monoclonal antibody labelled with Ulight™ dye) was prepared according to the manufacturer's protocol (PerkinElmer LANCE Ultra cAMP kit). Following this incubation, 5 mcL europium labelled cAMP and 5 mcL Ulight anti-cAMP antibody was added to each well. The plate was covered to prevent evaporation and incubated for 60 minutes at room temperature in the dark. Plates were read on an Envision fluorescent plate reader (PerkinElmer).
Test values were first normalized to the system maximum and system minimum averaged values in Excel using the formula: (test value−system min average)/(system max average -system min average)*100. Normalized test values represent a baseline corrected percentage of the system maximum cAMP response induced by forskolin. Data from up to 3 replicate tests were analyzed for each peptide. Potency values were estimated using GraphPad Prism software (v7.04) by fitting data to a 4-parameter logistic curve model: Y=Bottom+(Top−Bottom)/(1+10^((LogEC50−X))). The Hill slope was constrained to 1.0. EC50 values were converted to pEC50 values using the formula: pEC50=−Log (EC50).

[2] = target: T2, human GLP-1 receptor (GLP-1R) (Homo sapiens, UniProt P43220); assay: cAMP accumulation assay, CHO-K1 cells stably expressing human GLP-1R; type: cell-based; conditions: cAMP accumulation, mean pEC50, Table 10
T2 construct: expressed in transfected cells
T2 sequence (P43220 24-463): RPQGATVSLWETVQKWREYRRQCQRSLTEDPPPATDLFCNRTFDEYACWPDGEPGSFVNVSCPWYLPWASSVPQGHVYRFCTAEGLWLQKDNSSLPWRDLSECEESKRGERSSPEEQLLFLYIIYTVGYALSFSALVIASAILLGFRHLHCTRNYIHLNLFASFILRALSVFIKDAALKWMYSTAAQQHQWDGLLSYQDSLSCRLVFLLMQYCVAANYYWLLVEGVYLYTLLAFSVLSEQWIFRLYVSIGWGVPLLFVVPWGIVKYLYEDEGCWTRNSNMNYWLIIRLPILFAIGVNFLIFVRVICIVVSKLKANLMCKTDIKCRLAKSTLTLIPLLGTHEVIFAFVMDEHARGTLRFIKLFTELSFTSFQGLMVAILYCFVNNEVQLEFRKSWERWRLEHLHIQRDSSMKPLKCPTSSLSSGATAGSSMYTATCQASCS

T1 sequence (P47871 26-477): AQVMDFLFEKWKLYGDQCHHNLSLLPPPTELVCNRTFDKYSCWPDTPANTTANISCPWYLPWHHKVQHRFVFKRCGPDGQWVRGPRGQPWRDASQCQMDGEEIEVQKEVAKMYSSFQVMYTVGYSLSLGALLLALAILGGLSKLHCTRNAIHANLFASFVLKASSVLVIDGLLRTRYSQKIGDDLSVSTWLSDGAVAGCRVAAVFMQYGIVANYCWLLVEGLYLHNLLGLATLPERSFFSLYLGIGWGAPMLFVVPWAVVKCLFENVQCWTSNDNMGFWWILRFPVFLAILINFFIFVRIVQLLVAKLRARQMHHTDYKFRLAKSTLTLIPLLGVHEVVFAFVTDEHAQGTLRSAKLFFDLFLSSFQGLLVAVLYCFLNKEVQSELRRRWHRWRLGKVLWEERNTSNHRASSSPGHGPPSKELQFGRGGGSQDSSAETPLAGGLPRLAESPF

Structure (SMILES) | EC50 [1] | EC50 [2]
CC(C)C[C@H](NC(=O)[C@H](Cc1ccc(O)cc1)NC(=O)[C@H](CCCCN)NC(=O)[C@H](CO)NC(=O)[C@H](Cc1ccc(O)cc1)NC(=O)[C@H](CC(=O)O)NC(=O)[C@H](CO)NC(=O)[C@@H](NC(=O)[C@H](Cc1ccccc1)NC(=O)[C@@H](NC(=O)CNC(=O)[C@H](Cc1c[nH]cn1)NC(=O)[C@H](CO)NC(=O)[C@@H](N)Cc1ccc(O)cc1)[C@@H](C)O)[C@@H](C)O)C(=O)N[C@@H](CC(=O)O)C(=O)N[C@@H](CCCCNC(=O)CC[C@H](NC(=O)CC[C@H](NC(=O)COCCOCCNC(=O)CCCCCCCCCCCCCCCCCCC(=O)O)C(=O)O)C(=O)O)C(=O)N[C@@H](CCCCN)C(=O)N[C@@H](Cc1ccc(O)cc1)C(=O)N[C@@H](C)C(=O)N[C@@H](CCC(N)=O)C(=O)N[C@@H](CCC(=O)O)C(=O)N[C@@H](Cc1ccccc1)C(=O)N[C@H](C(=O)NC(C)(C)C(=O)N[C@@H](Cc1c[nH]c2ccccc12)C(=O)N[C@@H](CC(C)C)C(=O)N[C@@H](CCC(=O)O)C(=O)N(C)[C@@H](CCC(=O)O)C(=O)N[C@@H](CCC(=O)O)C(=O)N1CCC[C@H]1C(=O)N[C@@H](CO)C(=O)N[C@@H](CO)C(=O)NCC(=O)N[C@@H](C)C(=O)N1CCC[C@H]1C(=O)N1CCC[C@H]1C(=O)N1CCC[C@H]1C(=O)N[C@@H](CO)C(=O)O)C(C)C [Compound A18] | 39.8 pM | > 1000 pM
CC(C)C[C@H](NC(=O)[C@H](Cc1ccc(O)cc1)NC(=O)[C@H](CCCCN)NC(=O)[C@H](CO)NC(=O)[C@H](Cc1ccc(O)cc1)NC(=O)[C@H](CC(=O)O)NC(=O)[C@H](CO)NC(=O)[C@@H](NC(=O)[C@H](Cc1ccccc1)NC(=O)[C@@H](NC(=O)CNC(=O)[C@H](Cc1c[nH]cn1)NC(=O)[C@H](CO)NC(=O)[C@@H](N)Cc1ccc(O)cc1)[C@@H](C)O)[C@@H](C)O)C(=O)N[C@@H](CC(=O)O)C(=O)N[C@@H](CCCCNC(=O)CC[C@H](NC(=O)CC[C@H](NC(=O)COCCOCCNC(=O)CCCCCCCCCCCCCCCCCCC(=O)O)C(=O)O)C(=O)O)C(=O)N[C@@H](CCCCN)C(=O)N[C@@H](Cc1ccc(O)cc1)C(=O)N[C@@H](C)C(=O)N[C@H]1CCC(=O)NCCCC[C@@H](C(=O)N[C@@H](Cc2c[nH]c3ccccc23)C(=O)N[C@@H](CC(C)C)C(=O)N[C@@H](CCC(=O)O)C(=O)N[C@@H](CCC(=O)O)C(=O)N[C@@H](CCC(=O)O)C(=O)N2CCC[C@H]2C(=O)N[C@@H](CO)C(=O)N[C@@H](CO)C(=O)NCC(=O)N[C@@H](C)C(=O)N2CCC[C@H]2C(=O)N2CCC[C@H]2C(=O)N2CCC[C@H]2C(=O)N[C@@H](CO)C(=O)O)NC(=O)[C@H](C(C)C)NC(=O)[C@H](Cc2ccccc2)NC(=O)[C@H](CCCCN)NC1=O [Compound A25] (H-YSHGTFTSDYSKYLDK([γGlu-γGlu-AEEA-C20 diacid])KYAEKFVKWLEEEPSSGAPPPS-OH; lactam 20-24) | 1.26 pM | > 1000 pM
CC(C)C[C@H](NC(=O)[C@H](Cc1ccc(O)cc1)NC(=O)[C@H](CCCCN)NC(=O)[C@H](CO)NC(=O)[C@H](Cc1ccc(O)cc1)NC(=O)[C@H](CC(=O)O)NC(=O)[C@H](CO)NC(=O)[C@@H](NC(=O)[C@H](Cc1ccccc1)NC(=O)[C@@H](NC(=O)CNC(=O)[C@H](Cc1c[nH]cn1)NC(=O)[C@H](CO)NC(=O)[C@@H](N)Cc1ccc(O)cc1)[C@@H](C)O)[C@@H](C)O)C(=O)N[C@@H](CC(=O)O)C(=O)N[C@@H](CCCCNC(=O)CC[C@H](NC(=O)CC[C@H](NC(=O)COCCOCCNC(=O)CCCCCCCCCCCCCCCCCCC(=O)O)C(=O)O)C(=O)O)C(=O)N[C@@H](CCCCN)C(=O)N[C@@H](Cc1ccc(O)cc1)C(=O)N[C@@H](C)C(=O)N[C@H]1CCC(=O)NCCCC[C@@H](C(=O)N[C@@H](Cc2c[nH]c3ccccc23)C(=O)N[C@@H](CC(C)C)C(=O)N[C@@H](CCC(=O)O)C(=O)N[C@@H](CC(=O)O)C(=O)N[C@@H](CCC(=O)O)C(=O)N2CCC[C@H]2C(=O)N[C@@H](CO)C(=O)N[C@@H](CO)C(=O)NCC(=O)N[C@@H](CCCCN)C(=O)N2CCC[C@H]2C(=O)N2CCC[C@H]2C(=O)N2CCC[C@H]2C(=O)N[C@@H](CO)C(=O)O)NC(=O)[C@H](C(C)C)NC(=O)[C@H](Cc2ccccc2)NC(=O)[C@H](CCCCN)NC1=O [Compound A32] (H-YSHGTFTSDYSKYLDK([γGlu-γGlu-AEEA-C20 diacid])KYAEKFVKWLEDEPSSGKPPPS-OH; lactam 20-24; N-terminus assumed) | 2 pM | > 1000 pM
CC(C)C[C@H](NC(=O)[C@H](Cc1ccc(O)cc1)NC(=O)[C@H](CCCCN)NC(=O)[C@H](CO)NC(=O)[C@H](Cc1ccc(O)cc1)NC(=O)[C@H](CC(=O)O)NC(=O)[C@H](CO)NC(=O)[C@@H](NC(=O)[C@H](Cc1ccccc1)NC(=O)[C@@H](NC(=O)CNC(=O)[C@H](Cc1c[nH]cn1)NC(=O)[C@H](CO)NC(=O)[C@@H](N)Cc1ccc(O)cc1)[C@@H](C)O)[C@@H](C)O)C(=O)N[C@@H](CC(=O)O)C(=O)N[C@@H](CCCCNC(=O)CC[C@H](NC(=O)CC[C@H](NC(=O)COCCOCCNC(=O)CCCCCCCCCCCCCCCCCCC(=O)O)C(=O)O)C(=O)O)C(=O)N[C@@H](CCCCN)C(=O)N[C@@H](Cc1ccc(O)cc1)C(=O)N[C@@H](C)C(=O)N[C@@H](CCC(N)=O)C(=O)N[C@@H](CCC(=O)O)C(=O)N[C@@H](Cc1ccccc1)C(=O)NC(C)(C)C(=O)N[C@@H](CCCCN)C(=O)N[C@@H](Cc1c[nH]c2ccccc12)C(=O)N[C@@H](CC(C)C)C(=O)N[C@@H](CCC(=O)O)C(=O)N[C@@H](CC(=O)O)C(=O)N[C@@H](CCC(=O)O)C(=O)N1CCC[C@H]1C(=O)N[C@@H](CO)C(=O)N[C@@H](CO)C(=O)NCC(=O)N[C@@H](C)C(=O)N1CCC[C@H]1C(=O)N1CCC[C@H]1C(=O)N1CCC[C@H]1C(=O)N[C@@H](CO)C(=O)O [Compound A9] (H-YSHGTFTSDYSKYLDK([γGlu-γGlu-AEEA-C20 diacid])KYAQEF[Aib]KWLEDEPSSGAPPPS-OH; N-terminus assumed) | 25.1 pM | > 1000 pM
CC(C)C[C@H](NC(=O)[C@H](Cc1ccc(O)cc1)NC(=O)[C@H](CCCCN)NC(=O)[C@H](CO)NC(=O)[C@H](Cc1ccc(O)cc1)NC(=O)[C@H](CC(=O)O)NC(=O)[C@H](CO)NC(=O)[C@@H](NC(=O)[C@H](Cc1ccccc1)NC(=O)[C@@H](NC(=O)CNC(=O)[C@H](Cc1c[nH]cn1)NC(=O)[C@H](CO)NC(=O)[C@@H](N)Cc1ccc(O)cc1)[C@@H](C)O)[C@@H](C)O)C(=O)N[C@@H](CC(=O)O)C(=O)N[C@@H](CCCCNC(=O)CC[C@H](NC(=O)CC[C@H](NC(=O)COCCOCCNC(=O)CCCCCCCCCCCCCCCCCCC(=O)O)C(=O)O)C(=O)O)C(=O)N[C@@H](CCCCN)C(=O)N[C@@H](Cc1ccc(O)cc1)C(=O)N[C@@H](C)C(=O)N[C@@H](CCCCN)C(=O)N[C@@H](CCC(=O)O)C(=O)N[C@@H](Cc1ccccc1)C(=O)N[C@H](C(=O)NC(C)(C)C(=O)N[C@@H](Cc1c[nH]c2ccccc12)C(=O)N[C@@H](CC(C)C)C(=O)N[C@@H](CCC(=O)O)C(=O)N[C@@H](CO)C(=O)N[C@@H](CCC(=O)O)C(=O)N1CCC[C@H]1C(=O)N[C@@H](CO)C(=O)N[C@@H](CO)C(=O)NCC(=O)N[C@@H](C)C(=O)N1CCC[C@H]1C(=O)N1CCC[C@H]1C(=O)N1CCC[C@H]1C(=O)N[C@@H](CO)C(=O)O)C(C)C [Compound A22] (H-YSHGTFTSDYSKYLDK([γGlu-γGlu-AEEA-C20 diacid])KYAKEFV[Aib]WLESEPSSGAPPPS-OH; N-terminus assumed) | 2 pM | > 1000 pM
